Measured values: publication PMC4392921 (Diabetes, 2014)

Test system: CD4+ T-cell clones specific for modified GAD65 epitopes
Experiment: T-cell clone proliferation assay, [3H]-thymidine incorporation
Format: cell-based, human
Conditions: GAD154E,164E-specific T cells (data not shown)

TTG-treated GAD: GAD65 protein unfolded by heating and treated with transglutaminase
proliferation in response to treated GAD protein: not able to proliferate
